Data reported in PMC5685509 (Journal of agricultural and food chemistry, 2017).
Counter-ions that a name gives are not always drawn.

Assays:
quinone reductase = assay: in vitro quinone reductase; format: cell-based, murine; details: for CI, chemoprevention index (= IC50/CD): Hepa1c1c7 cells
Hepa1c1c7 cells = assay: cytotoxicity in Hepa1c1c7 cells; format: cell-based, murine; details: Mus musculus, Hepa-1c1c7, read-out: quinone reductase (QR) induction IC50
[1] = in vitro hydroxyl radical-scavenging activity bioassay; format: biochemical

CI, chemoprevention index (= IC50/CD) (quinone reductase)	Compound	quinone reductase-inducing activity (in words) (quinone reductase)	IC50 (Hepa1c1c7 cells) [µM]	hydroxyl radical-scavenging activity (in words) [1]
>5.2	O=c1c(O[C@@H]2O[C@H](CO)[C@H](O)[C@H](O)[C@H]2O)c(-c2ccc(O)c(O)c2)oc2cc(O)cc(O)c12 [Compound 7, hyperoside]	exhibited quinone reductase-inducing activity	> 100	
	O=c1c(O[C@@H]2O[C@@H](CO)[C@H](O)[C@H]2O)c(-c2ccc(O)c(O)c2)oc2cc(O)cc(O)c12 [Compound 8, quercetin 3-O-α-L-arabinofuranoside]		> 100	
	O=c1c(O[C@@H]2OC[C@@H](O)[C@H](O)[C@H]2O)c(-c2ccc(O)c(O)c2)oc2cc(O)cc(O)c12 [Compound 9, quercetin 3-O-β-D-xylopyranoside]		> 100	
	O=C(O)c1cc(O)c(O)c(O)c1 [Compound 10, gallic acid]		55.3 ± 7.8	
5.8 ± 0.82	COC(=O)c1cc(O)c(O)c(O)c1 [Compound 11, gallic acid methyl ester]	exhibited quinone reductase-inducing activity	82.4 ± 11.9	
	O=Cc1ccc(CO)o1 [Compound 14, hydroxymethylfurfural]	exhibited quinone reductase-inducing activity		
	CC(=O)OCc1ccc(C=O)o1 [Compound 15, acetyloxymethylfurfural]	showed activity in neither of these two assays		showed activity in neither of these two assays
	COC(=O)CC(O)(CC(=O)OC)C(=O)O [Compound 16, 1,5-dimethyl citrate]	showed activity in neither of these two assays		showed activity in neither of these two assays
21.7 ± 2.8	C[S@@+]([O-])CCCCN=C=S [L-sulforaphane, reference compound]		16.7 ± 1.9	

Compound	CI, chemoprevention index (= IC50/CD) (quinone reductase)	quinone reductase-inducing activity (in words) (quinone reductase)	IC50 (Hepa1c1c7 cells) [µM]	hydroxyl radical-scavenging activity (in words) [1]
O=C(O)c1ccc(O)c(O)c1 [Compound 12, protocatechuic acid]	>24.4	exhibited quinone reductase-inducing activity	> 100	
